Test results reported in PubChem BioAssay (NCI).
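Values below derive from 48-hour exposures of cells grown in 96-well plates, with endpoints linearly interpolated between the two concentrations bracketing the appropriate inhibition level. The concentration for full growth arrest is given as TGI.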

Columns and labels:
Assay in all cases: NCI-60 cell line screen, 48 h
786-0 renal = test system: 786-0 renal
A498 renal = test system: A498 renal
A549 NSCLC = test system: A549 NSCLC
ACHN renal = test system: ACHN renal
BT-549 breast = test system: BT-549 breast
CAKI-1 renal = test system: CAKI-1 renal
CCRF-CEM leukemia = test system: CCRF-CEM leukemia
COLO 205 colon = test system: COLO 205 colon
DU-145 prostate = test system: DU-145 prostate
EKVX NSCLC = test system: EKVX NSCLC
HCC-2998 colon = test system: HCC-2998 colon
HCT-116 colon = test system: HCT-116 colon
HCT-15 colon = test system: HCT-15 colon
HOP-62 NSCLC = test system: HOP-62 NSCLC
HOP-92 NSCLC = test system: HOP-92 NSCLC
HS 578T breast = test system: HS 578T breast
HT29 colon = test system: HT29 colon
IGROV1 ovarian = test system: IGROV1 ovarian
K-562 leukemia = test system: K-562 leukemia
KM12 colon = test system: KM12 colon
LOX IMVI melanoma = test system: LOX IMVI melanoma
M14 melanoma = test system: M14 melanoma
MALME-3M melanoma = test system: MALME-3M melanoma
MCF7 breast = test system: MCF7 breast
MDA-MB-231 breast = test system: MDA-MB-231 breast
MDA-MB-435 = test system: MDA-MB-435
MOLT-4 leukemia = test system: MOLT-4 leukemia
NCI-H226 lung = test system: NCI-H226 lung
NCI-H23 lung = test system: NCI-H23 lung
NCI-H460 lung = test system: NCI-H460 lung
NCI-H522 lung = test system: NCI-H522 lung
NCI/ADR-RES ovarian = test system: NCI/ADR-RES ovarian
OVCAR-3 ovarian = test system: OVCAR-3 ovarian
OVCAR-4 ovarian = test system: OVCAR-4 ovarian
OVCAR-5 ovarian = test system: OVCAR-5 ovarian
OVCAR-8 ovarian = test system: OVCAR-8 ovarian
PC-3 prostate = test system: PC-3 prostate
RPMI-8226 leukemia = test system: RPMI-8226 leukemia
RXF 393 renal = test system: RXF 393 renal
SF-268 CNS = test system: SF-268 CNS
SF-295 CNS = test system: SF-295 CNS
SF-539 CNS = test system: SF-539 CNS
SK-MEL-2 melanoma = test system: SK-MEL-2 melanoma
SK-MEL-28 melanoma = test system: SK-MEL-28 melanoma
SK-MEL-5 melanoma = test system: SK-MEL-5 melanoma
SN12C renal = test system: SN12C renal
SNB-19 CNS = test system: SNB-19 CNS
SNB-75 CNS = test system: SNB-75 CNS
SR leukemia = test system: SR leukemia
SW-620 colon = test system: SW-620 colon
T-47D breast = test system: T-47D breast
TK-10 renal = test system: TK-10 renal
U251 CNS = test system: U251 CNS
UACC-257 melanoma = test system: UACC-257 melanoma
UACC-62 melanoma = test system: UACC-62 melanoma
UO-31 renal = test system: UO-31 renal

Measured: TGI

Cc1nc2ccccc2c(=O)n1-c1n[nH]c2ccccc12
> 100 µM: all assays above
